Measured values as given in patent US20050282755A1, “Compositions having antimicrobial activity and uses thereof” (priority 2004, published 2005).
≈ marks a conversion by molar mass, not a printed value. Non-standard residues stand in square brackets, D forms with d. Residues, ends and D or L forms follow the SMILES beside them. *: point of attachment. Lauroyl = CCCCCCCCCCCC(=O)*

Experiments:
Type in all cases: cell-based
Salmonella dublin (Lane) = assay: MIC, NCCLS M7-A6 broth microdilution (Table 9, no superscript)
Method in brief: (§1)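 Values come from a broth microdilution assay run in cation-adjusted Mueller Hinton broth with an inoculum of 5×10^5 to 1×10^6 CFU/milliliter, incubated overnight at 37° C and read as absence of visible turbidity.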

[1] = test system: Candida albicans ATCC 18804; assay: MIC in yeasts, NCCLS M27-A2 broth microdilution, RPMI 1640 (Table 9, letter e); details: ATCC 18804
Method in brief: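 Plates incubated 24 to 48 hours at 37° C, with yeast seeded at 0.5×10^3–2.5×10^3 CFU/milliliter final in RPMI 1640 (glutamine, phenol red indicator). MIC was read as the lowest peptide concentration showing no visible growth.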

[2] = test system: Propionibacterium acnes ATCC 6919; assay: MIC, agar dilution method NCCLS M11-A6, Brucella agar, anaerobic (Table 9, superscript c); details: ATCC 6919
Procedure: A bacterial suspension was prepared to allow for a final inoculum on the plate of 1.5×10^8 CFU/milliliter. After the suspension absorbed into the agar surface, the plates were incubated for 48-96 hours at 37° C. in a GasPak anaerobic chamber. The lowest concentration of peptide that contained no colony growth on the agar plate was determined as the MIC. MIC values that utilized this method of MIC determination are indicated in Table 9 with a superscript letter “c.”

[3] = test system: Staphylococcus aureus ATCC 29213; assay: MIC, NCCLS M7-A6 broth microdilution, cation-adjusted Mueller Hinton broth (Table 9, no superscript); details: ATCC 29213
Method in brief: as §1

[4] = test system: Escherichia coli ATCC 25922; assay: MIC, NCCLS M7-A6 broth microdilution (Table 9, no superscript); details: ATCC 25922
Method in brief: as §1

[5] = test system: Pseudomonas aeruginosa ATCC 27853; assay: as above; details: ATCC 27853
Method in brief: as §1

[6] = test system: Staphylococcus epidermidis ATCC 12228; assay: as above; details: ATCC 12228
Method in brief: as §1

Row | SMILES | MIC S. dublin (Salmonella dublin (Lane)) [µg/mL] | MIC C. albicans [1] [e ug/mL] | MIC P. acnes [2] [c ug/mL] | MIC S. aureus [3] [µg/mL] | MIC E. coli [4] [µg/mL] | MIC P. aeruginosa [5] [µg/mL] | MIC S. epidermidis [6] [µg/mL]
1 | CSCC[C@H](NC(=O)[C@H](Cc1ccccc1)NC(=O)[C@H](CC(N)=O)NC(=O)[C@H](CCCNC(=N)N)NC(=O)[C@H](CO)NC(=O)[C@H](Cc1c[nH]c2ccccc12)NC(=O)[C@H](CC(=O)O)NC(=O)[C@H](CCCNC(=N)N)NC(=O)[C@H](Cc1c[nH]c2ccccc12)NC(=O)[C@H](CCCNC(=N)N)NC(=O)[C@H](CO)NC(=O)[C@H](CCCNC(=N)N)NC(=O)CNC(=O)[C@@H](NC(=O)[C@H](CCCNC(=N)N)NC(=O)[C@H](CO)NC(=O)[C@@H](NC(=O)[C@H](CCCNC(=N)N)NC(=O)[C@@H](NC(=O)[C@H](C)NC(=O)[C@H](C)NC(=O)[C@H](CCCNC(=N)N)NC(=O)[C@H](CCCNC(=N)N)NC(=O)[C@H](CCCNC(=N)N)NC(=O)[C@@H](N)CCCNC(=N)N)[C@@H](C)O)C(C)C)[C@@H](C)O)C(=O)N[C@@H](CCCNC(=N)N)C(=O)N[C@@H](C)C(=O)N[C@@H](C)C(=O)N[C@@H](CCCNC(=N)N)C(=O)N[C@@H](CCCNC(=N)N)C(=O)N[C@@H](CCCNC(=N)N)C(=O)N[C@@H](CCCNC(=N)N)C(N)=O [Peptide 12] (H-RRRRAATRVSRTGRSRWRDWSRNFMRAARRRR-NH2) | 32 (≈ 7.72 µM) | >64 | >64 | 16 (≈ 3.86 µM) |  |  | 
2 | CCCCCCCCCCCC(=O)N[C@H](C(=O)N[C@@H](CCCNC(=N)N)C(=O)N[C@H](C(=O)N[C@@H](C)C(=O)N[C@@H](CCCNC(=N)N)C(=O)N[C@H](C(=O)NCC(=O)N[C@@H](CCCNC(=N)N)C(=O)N[C@@H](CO)C(=O)N[C@@H](CCCNC(=N)N)C(=O)N[C@@H](Cc1c[nH]c2ccccc12)C(=O)N[C@@H](CCCNC(=N)N)C(=O)N[C@@H](CC(=O)O)C(=O)N[C@@H](Cc1c[nH]c2ccccc12)C(=O)N[C@@H](C)C(=O)N[C@@H](CCCNC(=N)N)C(=O)N[C@@H](CC(N)=O)C(=O)N[C@@H](Cc1ccccc1)C(=O)N[C@@H](CCSC)C(=O)N[C@@H](CCCNC(=N)N)C(N)=O)[C@@H](C)O)C(C)C)[C@@H](C)O [Peptide 70] (Lauroyl-TRVARTGRSRWRDWARNFMR-NH2) | 32 (≈ 11.6 µM) | 8 | 64 | 8 (≈ 2.9 µM) | 4 (≈ 1.45 µM) | 8 (≈ 2.9 µM) | 1 (≈ 0.362 µM)
3 | CCCCCCCCCCCC(=O)N[C@@H](CCCNC(=N)N)C(=O)N[C@@H](CO)C(=O)N[C@@H](CCCNC(=N)N)C(=O)N[C@@H](Cc1c[nH]c2ccccc12)C(=O)N[C@@H](CCCNC(=N)N)C(=O)N[C@@H](CC(=O)O)C(=O)N[C@@H](Cc1c[nH]c2ccccc12)C(=O)N[C@@H](CO)C(=O)N[C@@H](CCCNC(=N)N)C(=O)N[C@@H](CC(N)=O)C(=O)N[C@@H](Cc1ccccc1)C(=O)N[C@@H](CCSC)C(=O)N[C@@H](CCCNC(=N)N)C(N)=O [Peptide 87, Lauryl-RSRWRDWSRNFMR-NH2] (Lauroyl-RSRWRDWSRNFMR-NH2) | 8 (≈ 3.93 µM) | 16 | >64 | 4 (≈ 1.97 µM) |  |  | 
4 | CCCCCCCCCCCC(=O)N[C@H](CCCNC(=N)N)C(=O)N[C@H](CO)C(=O)N[C@H](CCCNC(=N)N)C(=O)N[C@H](Cc1c[nH]c2ccccc12)C(=O)N[C@H](CCCNC(=N)N)C(=O)N[C@H](CC(=O)O)C(=O)N[C@H](CO)C(=O)N[C@H](C)C(=O)N[C@H](CCCNC(=N)N)C(=O)N[C@H](CC(N)=O)C(=O)N[C@H](Cc1ccccc1)C(=O)N[C@H](CCSC)C(=O)N[C@H](CCCNC(=N)N)C(N)=O [Peptide 233, Lauryl-rsrwrdsarnfmr-NH2] (Lauroyl-[dR][dS][dR][dW][dR][dD][dS][dA][dR][dN][dF][dM][dR]-NH2) | >64 |  | 16 | 16 (≈ 8.34 µM) | 16 (≈ 8.34 µM) | 64 (≈ 33.3 µM) | 16 (≈ 8.34 µM)
5 | CCCCCCCCCCCC(=O)N[C@@H](CCCNC(=N)N)C(=O)N[C@@H](Cc1c[nH]c2ccccc12)C(=O)N[C@@H](CCCNC(=N)N)C(=O)N[C@@H](CC(=O)O)C(=O)N[C@@H](CC(C)C)C(=O)N[C@@H](C)C(=O)N[C@@H](CCCNC(=N)N)C(N)=O [Peptide 241, Lauryl-RWRDLAR-NH2] (Lauroyl-RWRDLAR-NH2) | 16 (≈ 13.9 µM) |  | 64 | 4 (≈ 3.47 µM) | 32 (≈ 27.7 µM) | 32 (≈ 27.7 µM) | 8 (≈ 6.94 µM)
6 | CCCCCCCCCCCC(=O)N[C@@H](CCCNC(=N)N)C(=O)N[C@@H](Cc1c[nH]c2ccccc12)C(=O)N[C@@H](CCCNC(=N)N)C(=O)N[C@@H](C)C(=O)N[C@@H](CC(C)C)C(=O)N[C@@H](C)C(=O)N[C@@H](CCCNC(=N)N)C(N)=O [Peptide 242, Lauryl-RWRALAR-NH2] (Lauroyl-RWRALAR-NH2) | 32 (≈ 28.8 µM) |  | 64 | 2 (≈ 1.8 µM) | 16 (≈ 14.4 µM) | 8 (≈ 7.21 µM) | 2 (≈ 1.8 µM)
7 | CCCCCCCCCCCC(=O)N[C@@H](CCCNC(=N)N)C(=O)N[C@@H](Cc1c[nH]c2ccccc12)C(=O)N[C@@H](CCCNC(=N)N)C(=O)N[C@@H](C)C(=O)N[C@H](C(=O)N[C@@H](C)C(=O)N[C@@H](CCCNC(=N)N)C(N)=O)C(C)C [Peptide 243, Lauryl-RWRAVAR-NH2] (Lauroyl-RWRAVAR-NH2) | >64 |  | >64 | 4 (≈ 3.65 µM) | 32 (≈ 29.2 µM) | >64 | 2 (≈ 1.83 µM)
8 | CCCCCCCCCCCC(=O)N[C@H](CCCNC(=N)N)C(=O)N[C@H](Cc1c[nH]c2ccccc12)C(=O)N[C@H](CCCNC(=N)N)C(=O)N[C@H](C)C(=O)N[C@H](CC(C)C)C(=O)N[C@H](C)C(=O)N[C@H](CCCNC(=N)N)C(N)=O [Peptide 245, Lauryl-rwralar-NH2] (Lauroyl-[dR][dW][dR][dA][dL][dA][dR]-NH2) | 16 (≈ 14.4 µM) |  | 8 | 1 (≈ 0.901 µM) | 8 (≈ 7.21 µM) | 8 (≈ 7.21 µM) | 2 (≈ 1.8 µM)
9 | CCCCCCCCCCCC(=O)N[C@H](CCCNC(=N)N)C(=O)N[C@H](Cc1c[nH]c2ccccc12)C(=O)N[C@H](CCCNC(=N)N)C(=O)N[C@H](C)C(=O)N[C@@H](C(=O)N[C@H](C)C(=O)N[C@H](CCCNC(=N)N)C(N)=O)C(C)C [Peptide 246, Lauryl-rwravar-NH2] (Lauroyl-[dR][dW][dR][dA][dV][dA][dR]-NH2) | >64 |  | 32 | 4 (≈ 3.65 µM) | 32 (≈ 29.2 µM) | >64 | 2 (≈ 1.83 µM)
